First: Cc1cc(C)c(N2CCCCC2=O)c(Cl)c1
Second: O=C(O)c1nn(-c2ccc(Cl)cc2Cl)c2c1CCCC2
The melting point of the first is lower: 108 to 109 °C for the first, 239 to 240 °C for the second.

`O=C1N=C(N2CCOCC2)SC1Cc1cccc(-c2ccc(O)c(C34CC5CC(CC(C5)C3)C4)c2)c1` (stereo not given) and `O=C(OCCc1c(-c2ccccc2)n2nnnc2n2ncnc12)C12CC3CC(CC(C3)C1)C2` cannot be ordered by melting point: 129 to 131 °C for the first, 129 to 130 °C for the second.

Compared with `O=C1CC2(CCO1)c1ccccc1Oc1ccccc12`, `NC1Cc2cccc3c2C(C1)CN3C(=O)c1ccccc1` (stereo not given) is lower in melting point: 156 to 159 °C for the first, 118 to 120 °C for the second.

First: CCOC(=O)C1(C(=O)OCC)CCC2(CC1)c1cc(OC)c(OC)cc1CCN2C(=O)OCc1ccccc1
Second: CCOC(=O)CCCCCOc1c(/C=C/C(=O)CCc2ccccc2)occc1=O
The melting point of the first is higher: 101 to 102 °C for the first, 38.5 to 40 °C for the second.

First: COc1cc(C(C)=O)ccc1OCCN1CCC(C(O)(c2ccc(F)cc2)c2ccc(F)cc2)CC1
Second: Fc1ccc(-c2ncn(C3CCNCC3)c2-c2cccnc2Oc2ccc(OCc3ccccc3)cc2)cc1
The melting point of the first is lower: 131 to 135 °C for the first, 178 to 179 °C for the second.

First: CCOC(=O)CCc1cn(Cc2ccc(OCc3cn4c(Cl)cccc4n3)cc2)nc1OCC
Second: CON(C)C(=O)Nc1ccc(OCc2ccc(C(C)C)cc2)cc1
The melting point of the first is lower: 69 to 70 °C for the first, 87.5 to 88 °C for the second.

`COc1ccc(F)cc1OCC=O` and `COc1ccc(CCNC(=O)C(F)(F)F)cc1OC` cannot be ordered by melting point: 92.5 to 95 °C for the first, 93 °C for the second.

First: O=CN1CCC(c2noc3cc(Cl)ccc23)CC1
Second: Cc1noc(NC(=O)N2CCN(c3cc(-c4ccccc4F)ncn3)CC2)c1C
The melting point of the first is lower: 114 to 115 °C for the first, 189 to 190 °C for the second.

First: CC1CC2C3CCC4=CC(=O)C=CC4(C)C3=CCC2(C)C1C(=O)CN1CCN(c2cc(NC(C)(C)C)nc(NC(C)(C)C)n2)CC1 (stereo not given)
Second: CC(C)(C)OC(=O)c1ncn2c1[C@@H]1CCCN1C(=O)c1c-2cccc1C(F)(F)F
The melting point of the first is lower: 145 to 155 °C for the first, 201 to 203 °C for the second.

First: COc1cccc2c(C)c3n(c(=O)c12)CCCS3
Second: COc1ccc2c(Cc3ccco3)nnc(N3CCCC3)c2c1
The melting point of the first is lower: 122 to 123 °C for the first, 148 to 149 °C for the second.

First: O=c1[nH]c2cc(Cl)ccc2c(O)c1SC/C=C\c1ccccc1
Second: O=c1c2ccc(Cl)cc2n(Cc2ccccc2)n2cccc12
The melting point of the first is higher: over 300 °C for the first, 163 to 165 °C for the second.

First: CCC1Cc2cc(OCC(=O)O)c(C)c(C)c2C1=O (stereo not given)
Second: CCOC(=O)c1cn(C)c2cc(Br)ccc2c1=O
The melting point of the first is higher: 206 °C for the first, 189 to 191 °C for the second.

First: CC(O)(c1ccsc1)c1nccs1 (stereo not given)
Second: CCOC(=O)Nc1ccc(-c2cccs2)s1
The melting point of the first is higher: 120 to 122 °C for the first, 76 °C for the second.

First: O=C(CCCCCC1(C(=O)O)CCCC1)CCCCCC1(C(=O)O)CCCC1
Second: CCCCCCCCCCCCCCCCCCC(NC(C)=O)(C(=O)OCC)C(=O)OCC
The melting point of the first is higher: 78 to 85 °C for the first, 70 to 71 °C for the second.

First: Cc1oc(-c2ccccc2)nc1CCOc1ccc(C[C@@H](C(=O)O)N2CCN(c3ccccc3)CC2)cc1Br
Second: COc1cc(COc2nn(-c3ccccc3)cc2/C=C/c2csc(C(C)(C)C)n2)ccc1OCc1nc(-c2ccc(CC(=O)O)cc2)oc1C
The melting point of the first is higher: 220 to 222 °C for the first, 113 to 115 °C for the second.

First: Nc1ccc(F)c(-c2ccncc2)c1F
Second: CS(=O)(=O)N1CCN(c2n[nH]c(-c3ccc(Cl)cc3)c2-c2ccncc2)CC1
The melting point of the first is lower: 190 to 192 °C for the first, 245 to 248 °C for the second.

Compared with `Cc1sc2c(c1C(=O)c1ccccc1)CCC2C(=O)O` (stereo not given), `C[C@H](NC(=O)Cc1ccccc1)C(=O)O` is lower in melting point: 145 to 147 °C for the first, 102 to 104 °C for the second.

Compared with `COc1ccc(N(C(=O)CN2C(=O)C(Cc3n[nH]c4ccccc34)(OC)C(=O)N(c3cccnc3)c3ccccc32)C(C)C)cc1` (stereo not given), `CC(C(=O)c1c(O)c2cccnc2n(-c2cccc(OC(F)(F)F)c2)c1=O)c1ccccc1` (stereo not given) is lower in melting point: 207 to 209 °C for the first, 136 to 138 °C for the second.

First: NC1=NC(c2ccc(OC(F)(F)F)cc2)(c2cccc(-c3cccnc3F)c2)C2=NCCCCN12 (stereo not given)
Second: CS(=O)(=O)Nc1cc(C(F)(F)F)ccc1-c1cc(Oc2ccc3cccnc3c2)ncn1
The melting point of the first is lower: 88 to 97 °C for the first, 203 to 204 °C for the second.

First: C=CCOc1cc(-n2c(=O)cc(C(F)(F)F)n(C)c2=O)ccc1C#N
Second: O=c1c2cccnc2n(-c2cccc([N+](=O)[O-])c2)c(=O)n1Cc1ccncc1
The melting point of the first is lower: 158 to 160 °C for the first, 207 to 209 °C for the second.

First: COc1ccc2nc(NC(=O)C(CC3CCCC3)c3ccc(S(=O)(=O)CCc4ccccc4)cc3)sc2n1 (stereo not given)
Second: O=C(CN1CCc2c([nH]c3ccccc23)C1c1ccccc1)OCc1ccccc1 (stereo not given)
The melting point of the first is higher: 169 to 172 °C for the first, 131 to 132 °C for the second.

Compared with `CC(=O)OCC(=O)Nc1nc2c(Cl)cccc2s1`, `CCOC(=O)Cc1ccnc2c([N+](=O)[O-])cccc12` is lower in melting point: 205 to 207 °C for the first, 67 to 69 °C for the second.

First: CC(C)(C)c1ncncc1C(=O)c1ccc(Cl)cc1
Second: OCCNc1cc(Nc2ccc(Cl)cc2)ncn1
The melting point of the first is lower: 75 to 77 °C for the first, 183 °C for the second.

Compared with `COc1cc(OC)c2c(=O)cc(-c3ccc(O)cc3)oc2c1`, `COc1ccc(N)c(OC)c1-c1ccc(C[C@H](NC(=O)c2c(Cl)cccc2Cl)C(=O)O)cc1` is lower in melting point: 301 to 303 °C for the first, 231 to 232 °C for the second.

Compared with `CCC(c1oc2ccccc2c(=O)c1-c1ccccc1)n1cnc2c(N)ncnc21` (stereo not given), `Cn1nc(-c2ccccc2)c(CNc2ccccc2C(=O)O)c1Cl` is lower in melting point: 223 to 225 °C for the first, 192 to 193 °C for the second.

Compared with `O=c1[nH]c(=S)n2c3c1cnn3C(c1cccc(F)c1)=CC2`, `O=C1NCCc2[nH]c3ccc(F)cc3c21` is lower in melting point: 298 to 300 °C for the first, 242 to 245 °C for the second.

First: CC(C#N)(C#N)Cc1ccc(Cl)cc1
Second: NC(=S)CCCc1ccc(Br)cc1
The melting point of the first is lower: 91.1 °C for the first, 104 to 105 °C for the second.

Going from `CC1(C)Oc2ccc(S(=O)(=O)C(F)(F)F)cc2[C@@H](N2Cc3ccccc3C2=O)[C@@H]1O[N+](=O)[O-]` (relative stereo) to `CC1(C)C(=O)NC(=O)c2c1ccc(NC(=O)c1ccccc1)c2[N+](=O)[O-]`, the melting point rises from 190 °C to over 270 °C.

Compared with `CNC(=O)C(=O)c1ccccc1Oc1ccccc1`, `CC(c1ccccc1)C(CS)C(=O)NC(Cc1ccc(O)cc1)C(=O)O` (stereo not given) is lower in melting point: 94 to 95 °C for the first, 80 °C for the second.

First: Nc1sc2c(c1C(=O)c1ccc(Cl)cc1)CCN(CCc1ccc([N+](=O)[O-])cc1)C2
Second: N#CCCNC(=O)c1cccc(-c2ccc3c(n2)N(Cc2ccc(Cl)cc2Cl)CC3)c1
The melting point of the first is lower: 150 to 152 °C for the first, 156 to 157 °C for the second.

Compared with `O=C1CCC(N2Cc3cc(CNC(=O)c4cccc(Cl)c4)ccc3C2=O)C(=O)N1` (stereo not given), `Cc1cc(CC(=O)NCc2cccc3c2C(=O)N(C2CCC(=O)NC2=O)C3=O)oc1C` (stereo not given) is lower in melting point: 293 to 295 °C for the first, 221 to 223 °C for the second.

First: CCN1c2ccccc2N(C(=O)CN(C)C)c2ccccc2S1(=O)=O
Second: CCOC(=O)CCCCSc1nc(-c2ccccc2)c(-c2ccccc2)[nH]1
The melting point of the first is higher: 115 to 116 °C for the first, 87 to 89 °C for the second.

First: Cn1c(NN)nc2ccc(O)cc2c1=O
Second: CCn1nc(-c2cccc(Cl)c2)c(C(C)=O)c(Nc2cccc3cnccc23)c1=O
The melting point of the first is higher: over 300 °C for the first, 189 to 191 °C for the second.

First: CCCc1c(Cl)nc(NC=O)nc1Cl
Second: CC(=O)OC(C)c1ncnc(Cl)c1I (stereo not given)
The melting point of the first is higher: 92 to 94 °C for the first, 55 to 58 °C for the second.

First: Cc1ccc(N2C(=O)C(O)=C(C(=O)c3ccc(C(C)C)cc3)C2c2ccc(Cn3ccnn3)cc2)nn1 (stereo not given)
Second: N#Cc1ccc(NCC(=O)Nc2c(Cl)ccc3nc(N4CC[C@@H](O)C4)ccc23)cc1
The melting point of the first is higher: 293 °C for the first, 230 to 233 °C for the second.

First: CN(C)C=CC(=O)c1ccc(F)cc1
Second: CON=C(C)c1ccc(NS(C)(=O)=O)c(Sc2ccc(F)cc2F)c1
The melting point of the first is lower: 83.5 to 84 °C for the first, 110 to 111 °C for the second.

Compared with `COc1cc(C#Cc2cc(OC)c(OC(C)C)cc2OC(=O)CI)ccc1OC(C)C`, `COCOc1ccc(/C=C/C(=O)/C=C/c2ccc(OCOC)c(OCOC)c2)cc1OCOC` is lower in melting point: 127 to 128 °C for the first, 86 to 88 °C for the second.

First: CCCCCCCCCCCCCCCSCCO
Second: CCCCCCCCC(Cc1cccnc1)(C(=O)O)S(=O)(=O)c1ccc(OC)cc1 (stereo not given)
The melting point of the first is lower: 44 to 46 °C for the first, 159 °C for the second.

Compared with `OCCCc1cnoc1-c1ccc(Cl)c(Br)c1`, `CCCCOc1ccc(C2=CC=CN3CCS(=O)(=O)N=C23)cc1` is higher in melting point: 75 to 76 °C for the first, 230 to 232 °C for the second.

`COC(=O)C[C@@H]1Nc2ccc(NC(=O)OC(C)(C)C)cc2CNC1=O` and `CC(C)(C)OC(=O)N1CCN(C(=O)Nc2ccccc2)CC1` cannot be ordered by melting point: 167 to 169 °C for the first, 168 to 169 °C for the second.

First: CC(C)(C)C(NC(=O)c1cccc(I)c1)Nc1c(Nc2cccnc2)c(=O)c1=O (stereo not given)
Second: CC(C)c1cccc(C(C)C)c1NC(=O)NCC1(Nc2ccc(I)cc2)CCCC1
The melting point of the first is higher: 234 to 236 °C for the first, 176 °C for the second.

First: CCCC[C@H](NC(=O)CC[C@H](C)CNC(=O)COc1ccccc1)C(=O)CS(=O)Cc1ccco1 (stereo not given in full)
Second: C=CCn1nc(-c2sc(C(=O)NC(C)C)nc2-c2ccccc2)ccc1=O
The melting point of the first is lower: 96 to 99 °C for the first, 166 to 167 °C for the second.

First: Cc1cc2ccccn2c1
Second: CCOC(=O)c1cccc(-c2ccc(C#N)cc2)c1
The melting point of the first is lower: 57 to 58 °C for the first, 91.5 to 92 °C for the second.

First: CC(C)(C)c1cc(C(N)=O)cc(C(C)(C)C)c1O
Second: CC(C#Cc1ccc(C(=O)O)c(O)c1)c1ccc2c(c1)C(C)(C)CCC2(C)C (stereo not given)
The melting point of the first is higher: 263 to 265 °C for the first, 191 to 192 °C for the second.

First: COc1ccc2cc(CN(C)C(=O)c3cn(C)c4ccccc34)ccc2c1Br
Second: COC(=Cc1ccc(-c2cccc(N(C)C(=O)Nc3ccccc3)c2)cc1)C(=O)O
The melting point of the first is lower: 168 to 169 °C for the first, 223 °C for the second.

Compared with `CCCn1c(-c2ccc(-n3ccnc3)cc2)cnc1[C@H](Cc1ccccn1)N(C=O)c1cc2cc(C(F)(F)F)ccc2o1`, `O=C(NCc1ccccn1)Nc1cc(NC(=O)c2ccccn2)ccn1` is higher in melting point: 92 to 98 °C for the first, 206 to 207 °C for the second.

First: CNc1cc(OCC(O)CN2C(=O)CCC2=O)ccc1[N+](=O)[O-] (stereo not given)
Second: CC1=C(c2ccccc2)C(=O)N(C(C)(C)C(=O)C2CCCCC2)CO1
The melting point of the first is higher: 152 °C for the first, 94 °C for the second.

First: CCOCCC(=O)C1CCC2C3CCC4CC(O)CCC4(C)C3C(=O)CC12C (stereo not given)
Second: OC1CCCC2C3CCCCCCC3C12 (stereo not given)
The melting point of the first is lower: 126 to 130 °C for the first, 142 °C for the second.

First: CCC1(CC)c2cc(I)ccc2-c2ccc(C=O)cc21
Second: Cc1ccc(Sc2cncc3sc(C(N)=O)cc23)cc1
The melting point of the first is lower: 138 to 140 °C for the first, 198 to 199 °C for the second.

First: N#CC1C(=O)NC(=O)C(C#N)C12CCCCC2 (stereo not given)
Second: OC(Cn1cncn1)(c1ccc(Oc2ccc(Cl)cc2)cc1Cl)C1CC1 (stereo not given)
The melting point of the first is higher: 202 to 210 °C for the first, 170 °C for the second.

From a melting point compilation (Tetko et al.; mined from patent text by program, amines drawn as free bases though some values may be those of a salt)
